Measurements as given in patent US20260137664A1, “THERAPEUTIC AGENT FOR INTRACTABLE LYMPHATIC DISEASE AND INTRACTABLE VASCULAR DISEASE” (NATIONAL UNIVERSITY CORPORATION TOKAI NATIONAL HIGHER …, priority 2022, published 2026).

Assay: Population pharmacokinetic (PPK) analysis, nonlinear mixed effects model, two-compartment model
Assay type: in vivo, patients and healthy adults
Description: The memory unit 12 stores pre-constructed PK (pharmacokinetics) model information. Specifically, it stores a blood concentration calculation formula for the active ingredient sirolimus when the drug is repeatedly administered, a parameter calculation formula for calculating parameters corresponding to patient information, and pre-constructed estimated values of pharmacokinetic parameters. The blood concentration calculation formula is a formula that expresses the blood sirolimus concentration based on a two-compartment model. The parameters corresponding to patient information are parameters used in the blood concentration calculation formula, and are standard parameters for estimating the blood sirolimus concentration of patients who have the same patient information (also referred to as “patient background”). In this document, these are referred to as “standard PK parameters”.
Here, ka is the absorption rate constant (h−1), Cl/F is the clearance (L/h), V1/F is the volume of the first compartment (L), V2/F is the volume of the second compartment (L), and Q/F is the intercompartmental clearance […]. The values of these parameters are related to the patient's weight and age, the dosage form of the administered drug, and the presence or absence of concomitant use of a CYP3A4 inhibitor or CYP3A4 inducer. Di is the dose of the drug.
Each parameter in the blood concentration calculation formula is expressed as a function with the patient's weight and age, the dosage form of the drug, etc. as variables. This function corresponds to the parameter calculation formula for calculating the parameters corresponding to the patient. This parameter calculation formula is obtained in advance by population pharmacokinetic analysis using a nonlinear mixed effects model.
In formula (2), TVka is the typical value of the absorption rate constant ka, and is obtained in advance by population pharmacokinetic analysis. In this embodiment, the point estimate of TVKa is 0.235 (h−1), the relative error is 1.17%, and the 95% confidence interval is 0.229-0.240.
In formula (3), TVCl is a typical value of clearance Cl/F, and is obtained in advance by population pharmacokinetic analysis. In this embodiment, the point estimate of TVCl is 6.44 (L/h), the relative error is 6.04%, and the width of the 95% confidence interval is 5.72-7.25. WT is the patient's body weight. PMA (Post menstrual age) is the age after the last menstrual period (gestational age+postnatal age) and corresponds to the patient's age. e^ηCL represents inter-individual variation. When there is no actual measured value for the patient, ηCL is 0, and the inter-individual variation is 1. “Clinical trials assay” refers to a blood sample stored frozen, and in the case of a blood sample stored frozen, it is multiplied by 1.92. In the case of a blood sample stored refrigerated, it is multiplied by 1. “CYP3A4 fold change” is a coefficient that is determined according to the concomitant drug when there is a concomitant drug. The coefficient will be described later with reference to FIG. 9.
In formula (4), TVV1 is a typical value of the volume of the first compartment V1/F, and is obtained in advance by population pharmacokinetic analysis. In the embodiment, the point estimate of TVV1 is 176 (L), the relative error is 2.43%, and the width of the 95% confidence interval is 168-185. WT is the patient's body weight. eηV1 represents inter-individual variation. When there is no actual measured value for the patient, ηV1 is 0, and the inter-individual variation is 1. Depending on the information that can be obtained, it may be difficult to estimate the random effect of the patient on V1, and in such a case, the inter-individual variation for V1 may be set to 1 for all patients.
In formula (5), TVV2 is the typical value of the volume of the second compartment V2/F, and is determined in advance by population pharmacokinetic analysis. […]

CO[C@H]1C[C@@H]2CC[C@@H](C)[C@@](O)(O2)C(=O)C(=O)N2CCCC[C@H]2C(=O)O[C@H]([C@H](C)C[C@@H]2CC[C@@H](O)[C@H](OC)C2)CC(=O)[C@H](C)/C=C(\C)[C@@H](O)[C@@H](OC)C(=O)[C@H](C)C[C@H](C)/C=C/C=C/C=C/1C [sirolimus]
TVka, typical value of the absorption rate constant ka (point estimate) (population pharmacokinetic analysis, relative error 1.17%, 95% confidence interval 0.229-0.240): 0.235 h⁻¹
TVV1, typical value of the volume of the first compartment V1/F (point estimate) (population pharmacokinetic analysis, relative error 2.43%, 95% confidence interval 168-185): 176 L
TVQ, typical value of the intercompartmental clearance Q/F (point estimate) (population pharmacokinetic analysis, relative error 4.07%, 95% confidence interval 31.0-36.3): 33.6 L/h
TVCl, typical value of clearance Cl/F (point estimate) (population pharmacokinetic analysis, relative error 6.04%, 95% confidence interval 5.72-7.25): 6.44 L/h
TVV2, typical value of the volume of the second compartment V2/F (point estimate) (population pharmacokinetic analysis, relative error 13%, 95% confidence interval 218-362): 281 L
factor by which TVka is multiplied (when the drug is a granule (Granule formulation), formula (2)): 4.26
